In article PMC7016953 (Cells, 2020):

Experiments:
TRPC3 = target: T1, TRPC3 (Homo sapiens, UniProt Q13507); assay: Fluo-4 Ca2+ influx assay in HEK TRPC3-YFP cell suspensions; assay type: cell-based
T1 construct: expressed in transfected cells
T1 sequence (Q13507 1-848 isoform Q13507-3): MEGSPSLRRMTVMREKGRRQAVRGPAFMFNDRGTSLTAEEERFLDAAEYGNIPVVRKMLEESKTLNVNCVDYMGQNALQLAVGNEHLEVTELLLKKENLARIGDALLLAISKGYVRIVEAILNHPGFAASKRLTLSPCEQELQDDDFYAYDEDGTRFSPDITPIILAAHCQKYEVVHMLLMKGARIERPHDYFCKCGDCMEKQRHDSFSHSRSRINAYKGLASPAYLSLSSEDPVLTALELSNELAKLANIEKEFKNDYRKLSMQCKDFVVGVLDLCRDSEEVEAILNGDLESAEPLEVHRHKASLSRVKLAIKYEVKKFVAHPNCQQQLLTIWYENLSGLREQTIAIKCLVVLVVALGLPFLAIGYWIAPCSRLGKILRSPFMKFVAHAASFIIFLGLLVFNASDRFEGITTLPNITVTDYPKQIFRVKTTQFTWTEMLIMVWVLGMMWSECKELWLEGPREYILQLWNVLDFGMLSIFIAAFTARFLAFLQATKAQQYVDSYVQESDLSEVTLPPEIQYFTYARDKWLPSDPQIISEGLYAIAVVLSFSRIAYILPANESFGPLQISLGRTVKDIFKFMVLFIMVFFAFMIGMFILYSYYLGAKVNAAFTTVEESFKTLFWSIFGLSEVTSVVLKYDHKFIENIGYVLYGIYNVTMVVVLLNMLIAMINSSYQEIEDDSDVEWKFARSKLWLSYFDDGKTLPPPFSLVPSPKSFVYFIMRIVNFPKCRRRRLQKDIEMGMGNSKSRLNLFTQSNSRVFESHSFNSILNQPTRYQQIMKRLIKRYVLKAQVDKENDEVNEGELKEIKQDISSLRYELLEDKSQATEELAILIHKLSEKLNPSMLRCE

hTRPC6-YFP = test system: T2, hTRPC6-YFP; assay: Fluo-4 Ca2+ influx assay in HEK293 cells stably expressing TRPC6; assay type: cell-based, human; details: for effect on TRPC6: fluo-4 concentration response analysis
T2 construct: expressed in transfected cells

hTRPC7-YFP = test system: T3, hTRPC7-YFP; assay: Fluo-4 Ca2+ influx assay in HEK293 cells stably expressing TRPC7; assay type: cell-based, human; details: fluo-4 concentration response analysis
T3 construct: expressed in transfected cells

rTRPV1-CFP = test system: T4, rTRPV1-CFP; assay: Selectivity profiling, fluo-4 [Ca2+]i response, TRPV1; assay type: cell-based, rat; details: 100 µM
T4 construct: expressed in transfected cells
Method: (§1) Human embryonic kidney 293 (HEK293) cells were stably transfected with expression plasmids that encode hTRPC3-YFP, hTRPC6-YFP, hTRPC7-YFP, mTRPC4ß-YFP, rTRPV1-CFP, rTRPV2-YFP, rTRPV3-YFP, mTRPV4-YFP, or hTRPM2 as previously described. Cell lines were cultured in Earle’s minimum essential medium (MEM; Sigma, Munich, Germany), supplemented with 10% fetal calf serum (Gibco Thermo Fisher Scientific, Darmstadt, Germany), 2 mM L-glutamine, and required concentrations of geneticin in a range of 0.4–1 mg/mL. A HEK293mTRPC5-YFP cell line was maintained and induced as described before. […] For electrophysiological and single cell [Ca^2+]i imaging experiments, PC12 cells were plated onto 25 mm poly-L-lysine-coated glass coverslips and measured 24–48 h after seeding. […]
(§2) The primary compound screen and the generation of concentration response curves in HEK293 cells or in PC12 cells were performed by using a custom-made fluorescence plate imager built into a robotic liquid handling station equipped with a 96-tip multichannel head (Freedom Evo 150, Tecan, Männedorf, Switzerland) as described previously. […] Plates were mounted on the imager, and fluorescence signals were recorded with a cooled Zyla 5.5 camera (Andor, Belfast, UK) through a 515 nm long pass filter. […] When inhibitory potencies were evaluated, a second pipetting step with the respective reference agonist was performed. […]

[1] = test system: TRPC4, TRPC5, TRPA1, TRPM2, TRPM3, TRPM8, TRPV1, TRPV2, TRPV4, or TRPV4; assay: Selectivity profiling, inhibition of activator responses in the TRP channel panel; assay type: cell-based; details: 100 µM, subsequent stimulation with channel-specific activators
Method: as §1, §2

[2] = test system: human protein kinase C (PKC) ε; assay: Plasma membrane translocation of PKCε-YFP fusion protein; assay type: cell-based; details: 50 µM

C[C@@H]1CC[C@H]2[C@@H](C)C(=O)O[C@@H]3O[C@@]4(C)CC[C@@H]1[C@]32OO4 [artemisinin]
fluorescence signal of the Ca2+ indicator in primary screen (TRPC3; 20 µM, acute addition): immediate and transient increase in the fluorescence signal | EC50 of artemisinin under simultaneous application of OAG (TRPC3; 10–100 µM OAG co-applied): not affected | EC50 (TRPC3; fluo-4, HEK TRPC3-YFP cell suspensions, read-out: potency to activate Ca2+ entry through TRPC3): 32.8 µM | Ca2+ influx signals after preincubation with OAG (TRPC3; preincubation with 500 nM, 1 µM, or 5 µM OAG): did not induce stronger Ca^2+ influx signals | effect on TRPC6 (hTRPC6-YFP): marked preference to activate TRPC3, but not the closely related TRPC6 channel | effect on TRPC6 (hTRPC6-YFP; listed as Artemisinin): rather inhibits TRPC6 | signal in counterscreen with TRPC6-expressing cells (hTRPC6-YFP; primary screen, 20 µM): no signals | effect on TRPC7 (hTRPC7-YFP): weakly activated | [Ca2+]i response, TRPV1 (rTRPV1-CFP): none of the cell lines responded | inhibition of the investigated channels compared to the solvent control [1]: did not observe a significant inhibition | plasma membrane translocation of PKCε-YFP [2]: did not induce a discernible plasma membrane translocation
